In brackets after ≈: the same amount, converted by molar mass.
Assays:
[1] = In vivo pharmacokinetic assay in dogs; design: species or system Male Beagle dogs; conditions: Oral, 30 mg/kg
Procedure: Male Beagle dogs older than 6 months of age were selected. On the day of the assay, the animals were given the corresponding compound by single injection in the cephalic or saphenous vein in a volume of 1 mL/kg for the intravenous group; and by single gavage in a volume of 5 mL/kg for the oral group. The animals were weighed before administration and the dosing volume of the compound was calculated based on their body weight. About 0.5 mL of whole blood was collected from the cephalic or saphenous vein at each time point to prepare plasma for determination of concentrations by high performance liquid chromatography-tandem mass spectrometry (LC-MS/MS). Plasma concentrations were processed using non-compartment model of WinNonlin™ Version 6.3 or above (Pharsight, Mountain View, Calif.) pharmacokinetic software, and pharmacokinetic parameters were calculated using the linear log trapezoidal method.

[2] = In vivo pharmacokinetic assay in rats; design: species or system SD male rats
Procedure: SD male rats aged 7 to 10 weeks were selected. The rats were fasted for at least 12 hours before the administration, and resumed feeding 4 hours after the administration. The rats had free access to water throughout the assay period.
(§1) On the day of the assay, the animals in the intravenous group were administrated the corresponding compound through a single injection in the tail vein at an administration volume of 5 mL/kg; the oral group were administrated the corresponding compound through a single intragastric gavage at an administration volume of 10 mL/kg. The animals were weighed before administration, and the administration volume was calculated based on the body weight. The time for collecting samples was: 0.083 (the injection group), 0.25, 0.5, 1, 2, 4, 6, 8, 24 h. About 200 μL of whole blood was collected from the jugular vein at each time point to prepare plasma for concentration determination by high-performance liquid chromatography-tandem mass spectrometry (LC-MS/MS). All animals were euthanized by CO2 anesthesia after collecting the PK samples at the last time point. The plasma concentrations were processed by non-compartmental model of WinNonlin™ Version 6.3 (Pharsight, Mountain View, Calif.) pharmacokinetic software, and the pharmacokinetic parameters were calculated by the linear logarithm trapezoidal method.

[3] = system: Ba/F3-TEL-FLT3-D835Y subcutaneous allograft tumor; assay: Pharmacodynamics assay of Ba/F3-TEL-FLT3-D835Y cells in mice with subcutaneous allograft tumor; format: in vivo; conditions: for Average tumor volume Day 0: Day 0, before dosing; for % Inhibition rate / Average tumor volume Day 15: Oral, Once a day
Procedure: The efficacy of the assay compounds in the BALB/c nude mouse model of subcutaneous allografts of Ba/F3-TEL-FLT3-D835Y cells was evaluated in vivo.
Ba/F3-TEL-FLT3-D835Y cell line was cultured in 1640 medium supplemented with 10% fetal bovine serum and 1% double antibody at 37° C. and 5% CO2, and passaged twice a week. […].
When the cells in the logarithmic growth phase reached the required number for the assay, the cells were harvested, and centrifuged at 1000 rpm for 5 min. The supernatant was removed. The cells were resuspended in culture medium, and counted using a cell counter. […]. After mixing well, the suspension was placed on ice and aspirated with a 1 ml sterile syringe. 0.2 ml of cell suspension was inoculated subcutaneously in the right armpit of each mouse. That is, each mouse was inoculated with 1×10^6 Ba/F3-TEL-FLT3-D835Y cells. After inoculation, the tumor growth was observed day by day. The mice were randomly grouped according to tumor volume when the average tumor volume reached about 175.77 mm^3. Mice were dosed according to their body weight (10 μL/g).
After the start of dosing, the body weight and tumor size of the mice were measured twice a week. Tumor volume was calculated according to the formula: Tumor volume (mm^3)=½×(a×b^2) (where a represents the long diameter and b represents the short diameter).

[4] = Assay of solubility (37° C., 24 hours stirring, HPLC); format: physicochemical
Procedure: Assay method: The crystal form C of the compound of formula (I) was weighed and added to a 4 mL glass vial, and then 2 mL of solvent was added. The mixture was mixed well and a magnet bar was added to the above suspension. The suspension was stirred on a heater with magnetic stirring (37° C., protected from light). After 24 hours of stirring, a sample was taken. The resulting sample solution was quickly centrifuged. The supernatant was diluted to the appropriate multiple, and the concentration was determined by HPLC (unit: mg/mL).

[5] = In vivo pharmacokinetic assay in mice; design: species or system CD-1 male mice; conditions: male, CD-1, mouse, plasma; for Tmax: read-out: Tmax; for Vd: read-out: Vdss
Procedure: CD-1 male mice aged 7 to 10 weeks were selected. The doses for intravenous and oral administration were 1 mg/kg and 2.5 mg/kg, respectively. The mice were fasted for at least 12 hours before the administration, and resumed feeding 4 hours after the administration. The mice had free access to water throughout the assay period.
as §1, with “4,” for “4, 6,”, “30” for “200”, “saphenous” for “jugular”

[6] = system: human acute myeloma MOLM-13 cell line subcutaneous xenograft; assay: Inhibition of Molm-13 subcutaneous xenograft tumor in vivo; design: species or system NOD/SCID female mice; conditions: for Average tumor volume Day 0: Day 0, before dosing; for % Inhibition rate on day 11 / % Inhibition rate on day 15 / Average tumor volume Day 11 / Average tumor volume Day 15: Oral, Once a day
Procedure: The purpose of this assay is to evaluate the pharmacodynamics of the compounds in the NOD/SCID female mice model of human acute myeloma MOLM-13 cell line subcutaneous xenograft.
MOLM-13 cells were cultured in RPMI-1640 medium containing 10% fetal bovine serum. The MOLM-13 cells were collected in the exponential growth phase, and resuspended in PBS to a suitable concentration for subcutaneous tumor inoculation in […].
The assay mice were inoculated with 5×10^6 MOLM-13 cells resuspended in 0.1 ml of PBS (0.1 ml per mouse) subcutaneously on the right back. Tumor growth was regularly observed. When the tumor grew to an average volume of 98 mm^3, the mice were randomly divided into groups and administered according to tumor size and body weight of the mice.
After the start of administration, the body weight and tumor size of the mice were measured three times a week. The formula for calculating the tumor volume is: tumor volume (mm^3)=½×(a×b^2) (where a represents the long diameter and b represents the short diameter).

[7] = system: human biphenotypic B bone marrow mononuclear leukemia cell MV4-11 subcutaneous xenograft tumor; assay: Inhibition of MV4-11 subcutaneous xenograft tumor in vivo; design: species or system nude mice
Procedure: In this assay, the anti-tumor effect of the compounds was evaluated using a nude mice model of subcutaneous xenograft tumor of human biphenotypic B bone marrow mononuclear leukemia cell MV4-11.
Human biphenotypic B bone marrow mononuclear leukemia cell MV4-11 was cultured in vitro in suspension with a RPMI1640 medium supplemented with 10% fetal bovine serum, 100 U/mL penicillin and 100 μg/mL streptomycin in a 5% CO2 cell incubator at 37° C. Routine passaging was performed twice a week. Cells in the logarithmic growth phase were collected, counted and then used for inoculation.
0.2 mL (1×10^7) of MV4-11 cells (plus matrigel, with a volume ratio of 1:1) were inoculated subcutaneously on the right back of each mouse. The grouping and dosing were started when the average tumor volume reached about 140-200 mm^3.
The diameter of the tumor was measured with vernier calipers twice a week. The formula for calculating the tumor volume is: V=0.5a×b^2, where a and b represent the long and short diameters of the tumor, respectively.

[8] = Oral administration (2.5 mg/kg)
[9] = male, SD, rat, plasma, Oral, 2.5 mg/kg
[10] = male, SD, rat, plasma, iv, Injection, 1 mg/kg

## CCc1nc(C(N)=O)c(Nc2ccc(N3CCC4(CCN(C)CC4)CC3)c(C)c2)nc1NC1CCOCC1
[1]
  Cmax: 527 nM
  F%: 41.0%
  Tmax: 9.00 h
[2]; Oral, 20 mg/kg
  Cmax: 483 nM
  F%: 93%
  Tmax: 7.00 h
[3]; 1 mg/kg group
  Average tumor volume Day 0: 176 ± 2 mm^3
[3]; 1 mg/kg
  % Inhibition rate: 62%
  Average tumor volume Day 15: 1160 ± 99 mm^3
[3]; 3 mg/kg group
  Average tumor volume Day 0: 177 ± 2 mm^3
[3]; 3 mg/kg
  % Inhibition rate: 80%
  Average tumor volume Day 15: 683 ± 45 mm^3
[3]; 6 mg/kg group
  Average tumor volume Day 0: 177 ± 2 mm^3
[3]; 6 mg/kg
  % Inhibition rate: 103%
  Average tumor volume Day 15: 77 ± 13 mm^3
[4]; Biological medium FaSSIF, 37° C.
  Solubility: 110 µg/mL (≈ 211 µM)
[4]; Biological medium FeSSIF, 37° C.
  Solubility: 1110 µg/mL (≈ 2130 µM)
[4]; Biological medium SGF, 37° C.
  Solubility: 1490 µg/mL (≈ 2860 µM)
[4]; Buffer solution pH 1.0, 37° C.
  Solubility: >10000 µg/mL
[4]; Buffer solution pH 3.8, 37° C.
  Solubility: >10000 µg/mL
[4]; Buffer solution pH 4.5, 37° C.
  Solubility: >10000 µg/mL
[4]; Buffer solution pH 5.5, 37° C.
  Solubility: 810 µg/mL (≈ 1550 µM)

## CCc1nc(C(N)=O)c(Nc2ccc(N3CCC4(CCN(C)CC4)CC3)c(OC)c2)nc1NC1CCOCC1 [Compound A]
[5]; [8]
  AUC(0-t): 0.0745 µM·h
  Cmax: 13.4 nM
  bioavailability: 7.39%
  half-life: 7.57 h
  Tmax: 1 h
[5]; iv, Injection (1 mg/kg)
  AUC(0-t): 0.403 µM·h
  clearance: 73.4 mL/min/kg
  half-life: 2.13 h
  Vd: 8.93 L/kg

## CCc1nc(C(N)=O)c(Nc2ccc(N3CCC4(CCN(C)CC4)CC3)c(C)c2)nc1NC1CCOCC1 [Compound of formula (I)]
[6]; 15 mg/kg group
  Average tumor volume Day 0: 98.34 mm^3
[6]; 15 mg/kg
  % Inhibition rate on day 11: 92%
  % Inhibition rate on day 15: 94%
  Average tumor volume Day 11: 156.85 mm^3
  Average tumor volume Day 15: 223.09 mm^3
[6]; 50 mg/kg group
  Average tumor volume Day 0: 98.05 mm^3
[6]; 50 mg/kg
  % Inhibition rate on day 11: 106%
  % Inhibition rate on day 15: 104%
  Average tumor volume Day 11: 53.08 mm^3
  Average tumor volume Day 15: 0 mm^3

## CCc1nc(C(N)=O)c(Nc2ccc(N3CCC(N4CCN(C)CC4)CC3)c(OC)c2)nc1NC1CCOCC1 [Compound B, reference compound]
[6]; 15 mg/kg group
  Average tumor volume Day 0: 98.02 mm^3
[6]; 15 mg/kg
  % Inhibition rate on day 11: 59%
  % Inhibition rate on day 15: 79%
  Average tumor volume Day 11: 401.07 mm^3
  Average tumor volume Day 15: 566.95 mm^3
[5]; [8]
  AUC(0-t): 0.501 µM·h
  Cmax: 85.3 nM
  bioavailability: 33.1%
  half-life: 5.59 h
  Tmax: 1 h
[5]; iv, Injection (1 mg/kg)
  AUC(0-t): 0.605 µM·h
  clearance: 46.7 mL/min/kg
  half-life: 2.09 h
  Vd: 7.47 L/kg
[2]; [9]
  AUC(0-t): 0.361 µM·h
  Cmax: 29.1 nM
  bioavailability: 24.6%
[2]; male, SD, rat, plasma, Oral, 2.5 mg/kg, read-out: Tmax
  Tmax: 6 h
[2]; [10]
  AUC(0-t): 0.587 µM·h
  clearance: 44 mL/min/kg
  half-life: 2.73 h
[2]; male, SD, rat, plasma, iv, Injection, 1 mg/kg, read-out: Vdss
  Vd: 10.2 L/kg
[3]; 3 mg/kg group
  Average tumor volume Day 0: 176 ± 2 mm^3
[3]; 3 mg/kg
  % Inhibition rate: 68%
  Average tumor volume Day 15: 993 ± 79 mm^3
[7]; 1.5 mg/kg, Oral, Once a day
  % Inhibition rate on day 14: 57.7%
[7]; 1.5 mg/kg, Oral, Once a day, Day 14
  Average tumor volume Day 14: 431 mm^3
[7]; Day 0, one value for all groups, before dosing
  Average tumor volume Day 0: 149 mm^3

Source: patent publication US20230141887A1, “CRYSTAL FORM OF DIAZASPIROPYRAN COMPOUND” (MEDSHINE DISCOVERY INC., priority 2020, published 2023)
